Assay results reported in patent publication US11247980B2, “Herbicidal uracilpyrid” (BASF SE, priority 2017, dated 2022).

Columns and labels:
sensitive (w.1) = assay: greenhouse experiment, control of resistant weeds: sensitive biotype; format: in vivo; conditions: for weed control (%) w.1: AMATA Amaranthus tamariscinus, sensitive biotype; for activity on sensitive weeds (w.1): greenhouse, scale from 0 to 100
Description: (§1) The culture containers used were plastic flowerpots containing loamy sand with approximately 3.0% of humus as the substrate. The seeds of the test plants were sown separately for each species and/or resistant biotype. For the pre-emergence treatment, the active ingredients, which had been suspended or emulsified in water, were applied directly after sowing by means of finely distributing nozzles. The containers were irrigated gently to promote germination and growth and subsequently covered with transparent plastic hoods until the plants had rooted. This cover caused uniform germination of the test plants, unless this had been impaired by the active ingredients. For the post-emergence treatment, the test plants were first grown to a height of 3 to 15 cm, depending on the plant habit, and only then treated with the active ingredients which had been suspended or emulsified in water. For this purpose, the test plants were either sown directly and grown in the same containers, or they were first grown separately as seedlings and transplanted into the test containers a few days prior to treatment. Depending on the species, the plants were kept at 10-25° C. or 20-35° C., respectively. The test period extended over 2 to 4 weeks. During this time, the plants were tended, and their response to the individual treatments was evaluated. The evaluation was carried out by using a scale from 0 to 100. 100 means no emergence of the plants or complete destruction of at least the above-ground parts, and 0 means no damage, or normal course of growth.
(§2) The plants used in the greenhouse experiments were of the following species and biotype: […]

[1] = test system: resistant weeds containing the ΔG210 mutation (w.2); assay: greenhouse experiment, control of resistant weeds: resistant biotype; format: in vivo; conditions: for weed control (%) w.2: AMATA Amaranthus tamariscinus, PPO resistant biotype 1 (ΔG210 mutation); for activity on resistant weeds containing the ΔG210 mutation (w.2): greenhouse, scale from 0 to 100
Description: as §1, §2

[2] = test system: resistant weeds containing the ΔG210 mutation (w.3); assay: as above; format: in vivo; conditions: for weed control (%) w.3: AMATA Amaranthus tamariscinus, PPO resistant biotype 2 (ΔG210 mutation); for activity on resistant weeds containing the ΔG210 mutation (w.3): greenhouse, scale from 0 to 100
Description: as §1, §2

CHEAL = assay: greenhouse experiments, herbicidal activity, post-emergence treatment; format: in vivo, Chenopodium album; conditions: application rate 1 g/ha, scale 0 to 100
Description: (§3) The culture containers used were plastic flowerpots containing loamy sand with approximately 3.0% of humus as the substrate. The seeds of the test plants were sown separately for each species.
(§4) For the pre-emergence treatment, the active ingredients, which had been suspended or emulsified in water, were applied directly after sowing by means of finely distributing nozzles. The containers were irrigated gently to promote germination and growth and subsequently covered with transparent plastic hoods until the plants had rooted. This cover caused uniform germination of the test plants, unless this had been impaired by the active ingredients. For the post-emergence treatment, the test plants were first grown to a height of 3 to 15 cm, depending on the plant habit, and only then treated with the active ingredients which had been suspended or emulsified in water. For this purpose, the test plants were either sown directly and grown in the same containers, or they were first grown separately as seedlings and transplanted into the test containers a few days prior to treatment.
(§5) Depending on the species, the plants were kept at 10-25° C. or 20-35° C., respectively. The test period extended over 2 to 4 weeks. During this time, the plants were tended, and their response to the individual treatments was evaluated.
(§6) Evaluation was carried out using a scale from 0 to 100. […]

ALOMY = assay: as above; format: in vivo, Alopecurus myosuroides; conditions: application rate 8 g/ha, scale 0 to 100
Description: as §3, §4, §5, §6

BRADC = assay: as above; format: in vivo, Brachiaria decumbens; conditions: application rate 2 g/ha, scale 0 to 100
Description: as §3, §4, §5, §6

LOLMU = assay: as above; format: in vivo, Lolium multiflorum; conditions: application rate 8 g/ha, scale 0 to 100
Description: as §3, §4, §5, §6

MATCH = assay: as above; format: in vivo, Matricaria chamomilla; conditions: application rate 8 g/ha, scale 0 to 100
Description: as §3, §4, §5, §6

ZEAMX = assay: greenhouse experiments, post-emergence treatment, crop compatibility; format: in vivo, Zea mays; conditions: crop plants ZEAMX, application rate 2 g/ha, scale 0 to 100
Description: as §3, §4, §5, §6

| Structure (SMILES) | weed control (%) w.1 (sensitive (w.1); use rate 2 g/ha) | weed control (%) w.1 (sensitive (w.1); use rate 4 g/ha) | weed control (%) w.2 ([1]; use rate 2 g/ha) | weed control (%) w.2 ([1]; use rate 4 g/ha) | activity on resistant weeds containing the ΔG210 mutation (w.2) [1] | weed control (%) w.3 ([2]; use rate 2 g/ha) | weed control (%) w.3 ([2]; use rate 4 g/ha) | activity on resistant weeds containing the ΔG210 mutation (w.3) [2] | activity on sensitive weeds (w.1) (sensitive (w.1)) | damages (CHEAL) | damages (ALOMY) | damages (BRADC) | damages (LOLMU) | damages (MATCH) | damages (ZEAMX) |
| --- | --- | --- | --- | --- | --- | --- | --- | --- | --- | --- | --- | --- | --- | --- | --- |
| C#CCOc1cc(-n2nc3n(c2=O)CCCC3)c(Cl)cc1Cl [azafenidin, reference compound] | 88% | 100% | 62% | 78% | much weaker control of resistant in comparison to sensitive biotypes | 77% | 77% | much weaker control of resistant in comparison to sensitive biotypes |  |  |  |  |  |  |  |
| CCOC(=O)COc1ccccc1Oc1nc(-n2c(=O)cc(C(F)(F)F)n(C)c2=O)c(F)cc1Cl [compound 1, Ethyl 2-[2-[[3-chloro-5-fluoro-6-[3-methyl-2,6-dioxo-4-(trifluoromethyl)pyrimidin-1-yl]-2-pyridyl]oxy]phenoxy]acetate] | 88% | 100% | 87% | 100% | very good activity | 98% | 100% | very good activity | very good activity |  |  |  |  |  |  |
| COC(=O)C(OC)Oc1ccccc1Oc1nc(-n2c(=O)cc(C(F)(F)F)n(C)c2=O)c(F)cc1Cl (centres unmarked) [compound 2, Methyl 2-[2-[[3-chloro-5-fluoro-6-[3-methyl-2,6-dioxo-4-(trifluoromethyl)pyrimidin-1-yl]-2-pyridyl]oxy]phenoxy]-2-methoxy-acetate] |  |  |  |  |  |  |  |  |  | 90 | 70 | 80 | 70 | 70 | 25 |
| CCOC(=O)COc1ncccc1Oc1nc(-n2c(=O)cc(C(F)(F)F)n(C)c2=O)c(F)cc1Cl [compound 7, Ethyl 2-[[3-[[3-chloro-5-fluoro-6-[3-methyl-2,6-dioxo-4-(trifluoromethyl)pyrimidin-1-yl]-2-pyridyl]oxy]-2-pyridyl]oxy]acetate] | 93% | 100% | 100% | 100% | very good activity | 100% | 100% | very good activity | very good activity |  |  |  |  |  |  |
